Experimental data reported in patent US9163044B2, “Carbon monoxide releasing molecules and uses thereof” (Alfama, Inc., priority 2011, dated 2015).

Assays:
[1] = CO released from Compound 3b in phosphate buffer pH 7.4 alone or with human or rat microsomes (FIG. 8); format: in vitro ADME; details: 37° C.
Method: The vials were closed and after mixing, the samples were warmed to 37° C. for 5 minutes before an aliquot (25 μL, 0.5 mg protein content) of rat liver microsomes (BD, Cat. No. 452511) or human liver microsomes (BD, Cat. No. 452161) was added to each vial. In parallel analogous vials with all the reagents except the microsomes were prepared. Due to the light-sensitivity of the molybdenum compounds, the reactions were performed in the dark. The samples were incubated at 37° C. and gas samples of the headspace (from 100 μL to 500 μL) of the vials were removed with a gas-tight syringe after 5, 10, 15, 30, and 60 minutes (in some cases samples were also taken at 1, 2, 3 or 4 minutes) upon microsomes addition. The gas samples were then injected into empty sealed vials (8 mL volume) and the amount of CO present in the vials was measured using GC-RCP.
FIG. 8 depicts the amount of CO released from Compound 3b, expressed in equivalents of CO, in phosphate buffer pH 7.4 (“buffer”), phosphate buffer pH 7.4 in the presence of human microsomes (“human”) or rat microsomes (“rat”). The assay was performed in closed vials during 1 hour at 37° C. A gas aliquot was removed from the air space of the vials and CO concentration was determined by GC-RCP at different time points.

[2] = preliminary safety studies in mice; format: in vivo; details: doses up to 1 g/kg
[3] = carboxyhemoglobin (COHb) levels in treated mice; format: in vivo, CD-1 female mice
Method: FIG. 9 depicts the percentage of carboxyhemoglobin (CO-Hb) measured in CD-1 female mice following Compound 3b administration at 300 mg/kg, intravenously. The CO-Hb was quantified over 80 min by using an oximeter (Avoximeter 4000 from A-vox Instruments). The base line of CO-Hb measured with this instrument is 3-4%.

[4] = tested on: liver ischemia-reperfusion model; experiment: liver ischemia-reperfusion model; format: in vivo, C57BL/6 mice; details: 30 mg/kg i.p. 1 h before and 1 h after surgery; ALT 24 h later
Method: Liver ischemia-reperfusion model in C57BL/6 mice. In anesthetized C57BL/6 mice, the hepatic artery and portal vein were clamped for 30 min; 24 h later, serum ALT levels were determined. Compound 3b was dosed i.p. at 30 mg/kg each 1 h before and 1 h after surgery.
FIG. 20 depicts the effect of Compound 3b in the Ischemia-Reperfusion model. In anesthetized C57BL/6 mice, the hepatic artery and portal vein were clamped for 30 min; 24 h later, serum ALT levels were determined. Compound 3b was administered by i.p. injection at 30 mg/kg, 1 hour before and 1 h after surgery.

[5] = tested on: primary hepatocytes from C57BL/6 mice; experiment: ex-vivo model of apoptosis (ActD/TNF-α); format: cell-based, mouse; details: 2×150 μg/0.5 mL well (2×600 μM), 24 hours
Method: FIGS. 21A-21B depict the effect of Compound 3b in an ex-vivo model of apoptosis. Apoptosis of primary hepatocytes from C57BL/6 mice was induced with Actinomycin D (ActD; 200 ng/mL) and Tumour Necrosis Factor-α (TNF-α; 10 ng/mL). Compound 3b was added to the cultures 1 hour before and 1 hour after the addition of the apoptosis inducers ActD/TNF-α. Compound 3b was tested at concentrations of 25, 50, 100 and 150 μg/0.5 mL well. Hepatocytes survival was determined 24 hours after the addition of the apoptosis inducers. FIG. 21A: Percentage of increase in survival ActD/TNF-α treated cells in the presence of Compound 3b, relative to cells treated with only the apoptosis inducers. FIG. 21B: Toxicity of the Compound 3b doses on murine hepatocytes (not treated with apoptosis inducers). Data are the mean±S.D. of 3-5 independent experiments (3-5 livers from different mice).

[6] = tested on: murine partial hepatectomy model; experiment: liver regeneration, murine partial (70%) hepatectomy model; format: in vivo, mice; details: 2×100 mg/kg
Method: Liver regeneration in the murine partial hepatectomy model to test for regenerative activity. Model: partial (70%) liver resection in mice and follow rate of regeneration.
FIG. 22 depicts the effect of Compound 3b in a model of liver regeneration. Animals were anesthetized and 70% of the liver was resected, corresponding to the left and median liver lobes. Compound 3b was administered (2×100 mg/kg) 1 h before and 1 h after surgery. Two days later, animals were sacrificed, livers harvested, weighed, and stained for phospho histone H3 (PH3, a specific marker for cell division).

[7] = tested on: lethal APAP liver failure model; experiment: lethal APAP liver failure model (500 mg/kg APAP i.p.), survival; details: 2×120 mg/kg, 1 h and 3 h or 3 h and 5 h after APAP (500 mg/kg); 4 days
Method: Compound 3b was tested in a lethal APAP liver failure model (see, e.g. Imaeda et al. J Clin Invest (2009) 119:305-14).
Male C57BL/6 mice fasted overnight to increase CyP450 activity. APAP dosed i.p. at 500 mg/kg. Survival monitored over 3 to 5 days.
FIGS. 18A-18B depicts the survival curve of C57BL/6 mice injected (i.p.) with 500 mg/kg of APAP and treated with Compound 3b. Mice were fasted overnight and APAP was administered afterward (n=15). Compound 3b was administered at a dose of 120 mg/kg at 1 h and 3 h (A) or at 3 h and 5 h (B) after APAP administration. Mice survival was monitored for 4 days.
Mice were fasted overnight and APAP was administered afterward (n=15). Compound 3b was administered at a dose of 120 mg/kg (ip) at +3 h or +4 h after APAP administration. Another group of mice received NAC (150 mg/kg, ip) at +1 h after APAP. The remaining two groups are administered in NAC+ Compound 3b combination mode; one group of mice was administered with NAC (150 mg/kg, ip) at +1 h plus Compound 3b (120 mg/kg, ip)+3 h and other with Compound 3b (150 mg/kg, ip) at +1 h plus Compound 3b (120 mg/kg, ip)+4 h. Mice survival was monitored for 4 days.

[C-]#[N+]C(C)(C)C(=O)O.[C-]#[N+]C(C)(C)C(=O)O.[C-]#[N+]C(C)(C)C(=O)O.[C-]#[O+].[C-]#[O+].[C-]#[O+].[Mo] [Compound 3b, tricarbonyl[tris(2-isocyano-2-methyl-propionic acid)]Mo(0)]
factor by which microsomes accelerate CO release ([1]; human or rat microsomes versus buffer, 1 hour): 4.0-5.5 | CO released in pH 7.4 buffer in 1 hour ([1]; phosphate buffer pH 7.4, no microsomes): 0.25 mol equiv. of CO | toxicity in preliminary safety studies [2]: no toxicity | COHb in blood ([3]; 300 mg/kg i.v., over 80 min, base line 3-4%): ≤ 7.5% | symptomatic levels of COHb in blood ([3]; therapeutic doses, mice): did not cause symptomatic levels of COHb | serum ALT [4]: 29 U/L | increase in survival of ActD/TNF-α treated hepatocytes relative to inducers only [5]: more than 125% | liver weight increase 48 h after resection ([6]; 1 h before and 1 h after surgery, control 89%): 102% | PH3 staining (cell division), in words ([6]; two days after resection): increases PH3 staining | survival [7]: 100%
